The values that follow come from EP0709099A2, “An aqueous nasal suspension comprising cyclodextrin” (Senju Pharmaceutical Co., Ltd., priority 1994, dated 1996).

This series is described as follows: Stability constant of the drug in relation to cyclodextrin (solubility method, Higuchi et al.). The format is physicochemical. To be noted: 25°C, 24 hours shaking. As for the experimental part:
The stability constant of the drug in relation to cyclodextrin calculated by the solubility method is determined in the manner that, with the concentration of each drug being kept unchanged, a mixture of the drug and a cyclodextrin solution of varying concentration is shaken on a shaker at the rate of 200 cycles/min at 25°C for 24 hours to construct a solubility phase diagram of the drug at saturation in cyclodextrin solution and the stability constant is calculate by the method of Higuchi et al. [Advances in Analytical Chemistry and Instrumentation, Vol. 4, 144-148 (1965)].
The stability constant of the drug in relation to cyclodextrin was calculated applying the formula (8) on page 146, in "Advances in Analytical Chemistry and Instrumentation", Vol. 4, (1965).

As for `CC(=O)[C@@]1(O)CC[C@H]2[C@@H]3C[C@H](C)C4=CC(=O)C=C[C@]4(C)[C@@]3(F)[C@@H](O)C[C@@]21C` [Fluorometholone], the “Stability Constant α-CyD” value is given as 54 and the “Stability Constant β-CyD” value is 911.
Turning to `CCOC(=O)O[C@]1(C(=O)OCCl)CC[C@H]2[C@@H]3CCC4=CC(=O)C=C[C@]4(C)[C@H]3[C@@H](O)C[C@@]21C` [Loteprednol Etabonate], the “Stability Constant α-CyD” value is listed as 114 and the “Stability Constant β-CyD” value turned out to be 305.
